The term Inhibition denotes how much of the control response was suppressed. A low value points to little suppression. As usually defined, the inhibition is the drop in the measured response relative to a control, in per cent. Higher therefore signals a strong effect.

Assay [1] is filed under the species Rattus norvegicus. The assay is described as follows: (§1) Inhibition of gastric emptying in rats. It is filed as functional. Particulars: Stomach, read-out: ID50 (the source's name).
The species named for another assay is Homo sapiens. The assay is described as follows: Inhibition of LPS induced TNF-alpha production in human whole blood. The class given is functional. Conditions: read-out: ID50 (the source's name).
In assay [2] the target is T1, Phosphodiesterase 4 (Homo sapiens, UniProt P27815+Q08499+Q07343+Q08493). The assay is described as follows: Inhibition of PDE4 from U937 monocytic cells. Conditions: u-937. It is filed as cell-based.
The subject of assay [3] is Rattus norvegicus. In words: Inhibition of LPS-induced TNF-alpha production in rats 0.5 hr after oral dose. It is filed as functional. Particulars: for ED50: read-out: ID50 (the source's name).
The test system of a further assay is Cavia porcellus. In words: Inhibition of SRS-A-mediated bronchoconstriction and airway microvascular leakage in sensitized guinea pigs […] 1 hr prio to challenge. The class given is functional. Conditions: Lung, route oral, read-out: ID50 (the source's name).
For assay [4], the species on record is Rattus norvegicus. The assay is described as §1. It is filed as functional, Stomach.
Assay [5] has as its target T1, Phosphodiesterase 4. In words: Inhibition of PDE4 (Phosphodiesterase 4) from U937 cells. The class given is cell-based. Conditions: U-937, concentration not given here.

On to `CCOc1cc([C@]2(C#N)C[C@H]3C[C@@H](C(=O)O)C[C@H]3C2)ccc1OC`, for which the ED50 is 17 mg/kg in the assay filed under Rattus norvegicus [1] and 2.9 mg/kg in the assay with Rattus norvegicus [3]. Besides, the IC50 is 5.8 µM in the assay listed under Homo sapiens and 0.026 µM at Phosphodiesterase 4 [2].
`COc1ccc([C@]2(C#N)C[C@H]3C[C@@H](C(=O)NO)C[C@H]3C2)cc1OC(C)C`: the IC50 against Phosphodiesterase 4 [2] was found to be 0.012 µM. The compound also came in with an Inhibition in the assay with Rattus norvegicus [3] of 47%.
With `COc1ccc([C@]2(C#N)CC[C@@H](C(=O)O)CC2)cc1OC1CCCC1` [CILOMILAST], the ED50 in the assay filed under Rattus norvegicus [1] is 5.7 mg/kg; with Cavia porcellus it was 4.5 mg/kg; in the assay with Rattus norvegicus [3] it was 1.7 mg/kg. Moreover, in the assay filed under Homo sapiens, the IC50 is 18 µM.
In the case of `COc1ccc([C@]2(C#N)C[C@H]3C[C@@H](C(=O)O)C[C@H]3C2)cc1OC1CCCC1`, the IC50 in the assay listed under Homo sapiens turned out to be 21 µM; at Phosphodiesterase 4 [2], 0.009 µM. Also, the ED50 in the assay on Cavia porcellus was 9.6 mg/kg; in the assay on Rattus norvegicus [3] it was 0.4 mg/kg. In addition, the Inhibition in the assay filed under Rattus norvegicus [4] is on record as 73%.
`COc1ccc([C@]2(C#N)C[C@H]3C[C@H](C(=O)O)C[C@H]3C2)cc1OC1CCCC1` gave an IC50 against Phosphodiesterase 4 [2] of 0.15 µM. Moreover, the ED50 in the assay with Rattus norvegicus [3] is 3.8 mg/kg.
On to `CCOc1cc([C@]2(C#N)C[C@H]3C[C@@H](C(=O)NO)C[C@H]3C2)ccc1OC`, for which the ED50 in the assay filed under Rattus norvegicus [1] came to 12 mg/kg; in the assay on Cavia porcellus it was 5 mg/kg; in the assay with Rattus norvegicus [3], 1.8 mg/kg. Further, the IC50 in the assay filed under Homo sapiens was 0.8 µM. Further, on Phosphodiesterase 4 [5], the inhibition worked out at 56%.
Take `COc1ccc([C@]2(C#N)C[C@H]3C[C@@H](C(=O)O)C[C@H]3C2)cc1OC`: the IC50 against Phosphodiesterase 4 [2] was found to be 0.16 µM.
Take `COc1ccc([C@]2(C#N)C[C@H]3C[C@@H](C(=O)NO)C[C@H]3C2)cc1OC1Cc2ccccc2C1`: the IC50 against Phosphodiesterase 4 [2] was determined as 0.00085 µM. This compound had an Inhibition with Rattus norvegicus [3] of 17%.
Compound `COc1ccc([C@@]2(C#N)C[C@H]3C[C@@H](C(=O)O)C[C@H]3C2)cc1OC1CCCC1` had an IC50 against Phosphodiesterase 4 [2] greater than 0.3 µM.
Same read-out and setting: the result for `COc1ccc([C@@]2(C#N)C[C@H]3C[C@H](C(=O)O)C[C@H]3C2)cc1OC1CCCC1` reads greater than 0.3 µM.
In the case of `COc1ccc([C@]2(C#N)C[C@H]3C[C@@H](C(=O)NO)C[C@H]3C2)cc1OC1CCCC1`, the IC50 on Phosphodiesterase 4 [2] worked out at 0.0097 µM. The Inhibition in the assay on Rattus norvegicus [3] was determined as 52%.
In the case of `COc1ccc([C@]2(C#N)C[C@H]3C[C@@H](C(=O)NO)C[C@H]3C2)cc1OCC1CC1`, at Phosphodiesterase 4 [2], the IC50 turned out to be 0.029 µM. Further, the ED50 in the assay with Rattus norvegicus [3] stood at 3 mg/kg.
Consider `COc1ccc([C@]2(C#N)C[C@H]3C[C@@H](C(=O)NO)C[C@H]3C2)cc1OC`, for which the IC50 against Phosphodiesterase 4 [2] turned out to be 0.062 µM. Also, the Inhibition with Rattus norvegicus [3] is recorded as 55%.
Compound `COc1ccc([C@]2(C#N)C[C@H]3C[C@@H](C(=O)O)C[C@H]3C2)cc1OC1Cc2ccccc2C1` registered an IC50 on Phosphodiesterase 4 [2] of 0.0013 µM. Moreover, in the assay on Rattus norvegicus [3], the ED50 came to 1.7 mg/kg.
For the compound `COc1ccc([C@]2(C#N)C[C@H]3C[C@@H](C(=O)O)C[C@H]3C2)cc1OC(C)C`, the IC50 at Phosphodiesterase 4 [2] came out at 0.062 µM. The Inhibition in the assay with Rattus norvegicus [3] is given as 57%.
Turning to `COc1ccc([C@]2(C#N)C[C@H]3C[C@@H](C(=O)O)C[C@H]3C2)cc1OCC1CC1`, the IC50 against Phosphodiesterase 4 [2] came to 0.1 µM.
